Laboratory results published in publication PMC10747250, “Structure-Based Optimization of 1,2,4-Triazole-3-Thione Derivatives: Improving Inhibition of NDM-/VIM-Type Metallo-β-Lactamases and Synergistic Activity on Resistant Bacteria” (Pharmaceuticals, 2023).
Where “and” joins values, the source holds several entries; their conditions need not be identical. Equal entries are not always repeated. Where two headings read alike, the source gives them in different places. One block for each compound: values may come before it.

Experiments:
[1] = target: VIM-1 (Pseudomonas aeruginosa, UniProt A0A0F7KYQ8); test: VIM-1 spectrophotometric enzyme inhibition assay (nitrocefin hydrolysis); type: biochemical; parameters: dose or concentration left out as unconfirmed; conditions: 5 min, read-out: % Inib vs VIM-1
Description: (§1) The synthesized compounds were all tested for their inhibitory activity against targeted MBLs using a spectrophotometric assay (Table S2). After an initial validation at fixed concentration, compounds yielding > 0% inhibition were profiled in dose–response experiments to determine their IC50. The IC50 values were determined by measuring the rate of hydrolysis of the reporter substrate meropenem MEM ([S] = 57 μM; Km = 63.4 μM) in the presence of five different inhibitor concentrations. Assays were run after a 5 min incubation. The Ki was either calculated by the Cheng–Prusoff equation assuming competitive inhibition, or, for selected inhibitors, fully determined with Dixon plots (Figure S1).
(§2) The percentage of inhibition (%Inh) of 1,2,4-triazole derivatives was determined against a panel of subclass B1 MBLs (NDM-1, VIM-1, VIM-2, and IMP-1). Each compound was initially tested at a fixed concentration for inhibitory activity vs. the targeted enzymes. For the best active inhibitors, half-maximal inhibitory concentration (IC50) and Ki values were determined. Reactions were monitored using a Jasco V-730 spectrophotometer ( JASCO EUROPE S.R.L. Via Luigi Cadorna 1 23894 Cremella (LC) Italy) using nitrocefin or meropenem as reported substrates. Compounds were dissolved in dimethyl sulfoxide (DMSO) and stored at −20 °C. For VIM-1, VIM-2, and IMP-1MBLs, assays were conducted in 20 mM of HEPES, 100 mM of NaCl, and ZnSO4 at 10 µM at pH 7.4 at 25 °C with 0.01% v/v Triton X-100 to avoid compound aggregation and promiscuous inhibition. For NDM-1, assays were conducted in 20 mM of TRIS HCl + 150 mM of NaCl at pH 7.5 at 25°C with 0.01% v/v Triton X-100 to avoid aggregation.
Table S2. The inhibitory activity of 4-amino-4H-1,2,4-triazole-3-thiol derivatives discussed here. […]
Tests were conducted at 25° C by following the absorbance variation observed upon reporter substrate (Meropenem 57 μM for NDM-1, 17 μM for VIM-2) or Nitrocefin (23 μM for VIM-1). The percentage of inhibition is reported except when ≤ 15% and in this case is indicated by NI “no inhibition”. Compounds concentration was […] vs NDM-1. Assays were run after a 5-minutes incubation. […]

[2] = target: T1, NDM-1 (Klebsiella pneumoniae, UniProt C7C422); test: NDM-1 spectrophotometric enzyme inhibition assay (meropenem hydrolysis); type: biochemical; parameters: inhibition: dose or concentration left out as unconfirmed; conditions: for inhibition: 5 min, read-out: % Inib vs NDM-1; for IC50: substrate MEM 57 μM, 5 min incubation, triplicate, NI: no inhibition (<30% inhibition at 100 µM); for IC50 / Ki: 25 °C; for Ki: substrate MEM; for NDM-1 inhibitory activity: at 100 μM
T1 construct: made in house; host or cells: E. coli BL21(DE3)
T1 sequence (C7C422 29-270, looked up, species assumed): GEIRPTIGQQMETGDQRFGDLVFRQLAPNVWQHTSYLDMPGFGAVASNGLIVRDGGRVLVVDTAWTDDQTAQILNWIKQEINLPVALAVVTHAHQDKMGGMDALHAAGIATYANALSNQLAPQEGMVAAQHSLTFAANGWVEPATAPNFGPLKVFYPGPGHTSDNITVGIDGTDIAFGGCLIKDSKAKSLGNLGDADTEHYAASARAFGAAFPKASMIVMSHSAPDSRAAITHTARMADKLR
Description: as §1, §2
(§3) For all targeted proteins, the reaction was typically initiated by adding the substrate to the reaction buffer last, after a 5 min preincubation. After brief shaking, the reading was performed for a total kinetic time of 240 s at 25 °C. The IC50 values were determined by measuring the rate of hydrolysis of the reporter substrate in the presence of five different inhibitor concentrations. The binding affinity Ki was generally estimated from the determined IC50 using the Cheng–Prusoff equation as per competitive inhibition. For the best inhibitors, the mechanism of inhibition and Ki were determined with a Dixon plot (CP 22, CP 35, CP 56, and CP 57 against NDM-1; compound CP 57 against VIM-2).

[3] = test system: K. pneumoniae VA-416/02 (VIM-4); test: Synergy with meropenem, broth microdilution MIC; type: cell-based
Description: (§4) The potential synergistic activity of the three best inhibitors (CP 35, CP 56, and CP 57) was tested using the broth microdilution method on six MBL-producing multidrug-resistant clinical isolates. […] Although apparently modest, this increase in synergistic activity represents a significant improvement over the previous generation of triazole-thione β-lactamase inhibitors previous described by our group.

[4] = test system: six MBL-producing multidrug-resistant clinical isolates; test: Growth inhibition by the compound tested alone; type: cell-based; conditions: 32 μg/mL, without MEM
Description: as §4

[5] = test system: P. aeruginosa VA-182/00 (VIM-2); test: Synergy with meropenem, broth microdilution MIC; type: cell-based, Pseudomonas aeruginosa
Description: as §4

[6] = target: VIM-2 (Escherichia coli, UniProt Q5U7L7); test: VIM-2 spectrophotometric enzyme inhibition assay (meropenem hydrolysis); type: biochemical; conditions: 25 °C; for % Inib vs VIM-2: meropenem 17 μM, 5 min incubation, NI = no inhibition (≤15%)
Description: as §1, with “The IC50 values were determined by measuring the rate of hydrolysis of the reporter substrate meropenem MEM ([S] = 57 μM; Km = 63.4 μM) in the presence of five different inhibitor concentrations.” left out
as §2, §3

[7] = test system: K. pneumoniae SI-1072 (NDM-1); test: Synergy with meropenem, broth microdilution MIC; type: cell-based
Description: as §4

[8] = test system: K. pneumoniae SI-518 (NDM-1); test: Synergy with meropenem, broth microdilution MIC; type: cell-based
Description: as §4

[9] = target: MBLs; parameters: method as in PMID 36450011, PMID 31871094, PMID 32482673; conditions: cited from earlier work
[10] = Ki determined with Dixon plots, read-out: NDM-1 Ki (Dixon plots)
[11] = compound 32 μg/mL, VIM-4-producing K. pneumoniae
[12] = Ki calculated from IC50 as per competitive inhibition (Cheng–Prusoff), read-out: NDM-1 Ki (calculated from IC50)
[13] = compound 32 μg/mL, NDM-1-producing K. pneumoniae (strain not given)
[14] = Klebsiella pneumoniae, MEM alone (Cpd: None)

Structure (SMILES): FC(F)(F)c1ccccc1/C=N/n1cnnc1S [CP 17, (E)-4-((2-(Trifluoromethyl)benzylidene)amino)-4H-1,2,4-triazole-3-thiol]
inhibition [1]: 46% | inhibition [2]: 51% | IC50 [2]: > 100 µM and 226 µM

Structure (SMILES): Sc1nncn1/N=C/c1cccc2ccccc12 [CP 18, (E)-4-((Naphthalen-1-ylmethylene)amino)-4H-1,2,4-triazole-3-thiol]
inhibition [1]: 33% | inhibition [2]: > 100% | IC50 [2]: 52 ± 7.5 µM

Structure (SMILES): COc1ccc(/C=N/n2cnnc2S)cc1 [CP 19, (E)-4-((4-Methoxybenzylidene)amino)-4H-1,2,4-triazole-3-thiol]
inhibition [1]: 15% | inhibition [2]: 24%

Structure (SMILES): COc1cccc(/C=N/n2cnnc2S)c1 [CP 20, (E)-4-((3-Methoxybenzylidene)amino)-4H-1,2,4-triazole-3-thiol]
inhibition [1]: 14% | inhibition [2]: 40%

Structure (SMILES): COc1ccccc1/C=N/n1cnnc1S [CP 21, (E)-4-((2-Methoxybenzylidene)amino)-4H-1,2,4-triazole-3-thiol]
inhibition [1]: 32% | inhibition [2]: 38%

Structure (SMILES): Sc1nncn1/N=C/c1cccc(Br)c1 [CP 22, (E)-4-((3-Bromobenzylidene)amino)-4H-1,2,4-triazole-3-thiol]
inhibition [1]: 46% | inhibition [2]: 68% | IC50 [2]: 88.5 ± 3.7 µM | Ki [2, 10]: 42.7 µM

Structure (SMILES): Sc1nncn1/N=C/c1ccccc1Br [CP 23, (E)-4-((2-Bromobenzylidene)amino)-4H-1,2,4-triazole-3-thiol]
inhibition [2]: 67% | IC50 [2]: 83 ± 3.3 µM

Structure (SMILES): Sc1nncn1/N=C/c1ccc(Br)cc1 [CP 24, (E)-4-((4-Bromobenzylidene)amino)-4H-1,2,4-triazole-3-thiol]
inhibition [1]: 28% | inhibition [2]: 64% | IC50 [2]: 83.1 ± 2.7 µM

Structure (SMILES): O=C(O)c1ccccc1/C=N/n1cnnc1S [CP 29, (E)-2-(((3-Mercapto-4H-1,2,4-triazol-4-yl)imino)methyl)benzoic acid]
inhibition [1]: 17% | NDM-1 inhibitory activity [2]: no inhibitory activity | IC50 [2]: > 100 µM

Structure (SMILES): O=C(O)c1ccc(/C=N/n2cnnc2S)cc1 [CP 30, (E)-4-(((3-Mercapto-4H-1,2,4-triazol-4-yl)imino)methyl)benzoic acid]
inhibition [1]: 18% | NDM-1 inhibitory activity [2]: no inhibitory activity | IC50 [2]: > 100 µM

Structure (SMILES): N#Cc1ccccc1/C=N/n1cnnc1S [CP 31, (E)-2-(((3-Mercapto-4H-1,2,4-triazol-4-yl)imino)methyl)benzonitrile]
inhibition [2]: 10%

Structure (SMILES): Sc1nncn1/N=C/c1ccccn1 [CP 32, (E)-4-((Pyridin-2-ylmethylene)amino)-4H-1,2,4-triazole-3-thiol]
inhibition [1]: 17% | inhibition [2]: 20%

Structure (SMILES): FC(F)(F)c1nnc(S)n1/N=C/c1cccc(Br)c1 [CP 35, (E)-4-((3-Bromobenzylidene)amino)-5-(trifluoromethyl)-4H-1,2,4-triazole-3-thiol]
synergistic activity with MEM [3, 11]: no synergistic activity at all | Ki [2, 10]: 25.8 µM | growth inhibition, compound tested alone [4]: no growth inhibition | synergistic activity with MEM ([5]; compound 32 μg/mL, VIM-2 P. aeruginosa): no synergistic activity at all | % Inib vs VIM-2 [6]: 53%

Ki [2, 12]: 83 µM
Structure (SMILES): O=C(O)c1ccccc1/C=N/n1c(S)nnc1C(F)(F)F [CP 45, (E)-2-(((3-Mercapto-5-(trifluoromethyl)-4H-1,2,4-triazol-4-yl)imino)methyl)benzoic acid]

Structure (SMILES): FC(F)(F)c1nnc(S)n1/N=C/c1nn[nH]n1 [CP 46, (E)-4-(((2H-Tetrazol-5-yl)methylene)amino)-5-(trifluoromethyl)-4H-1,2,4-triazole-3-thiol]
% Inib vs VIM-2 [6]: 42%

Ki [2, 12]: 220 µM
Structure (SMILES): FC(F)(F)c1ccc(-c2nnc(S)n2/N=C/c2cccc(Br)c2)cc1 [CP 55, (E)-4-((3-Bromobenzylidene)amino)-5-(4-(trifluoromethyl)phenyl)-4H-1,2,4-triazole-3-thiol]

Structure (SMILES): O=C(O)c1cccc(/C=N/n2c(S)nnc2-c2ccc(C(F)(F)F)cc2)c1 [CP 56, (E)-3-(((3-Mercapto-5-(4-(trifluoromethyl)phenyl)-4H-1,2,4-triazol-4-yl)imino)methyl)benzoic acid]
synergistic activity with MEM [3, 11]: detectable synergistic effect | growth inhibition, compound tested alone [4]: no growth inhibition | % Inib vs VIM-2 [6]: 42%

Structure (SMILES): O=C(O)c1ccccc1/C=N/n1c(S)nnc1-c1ccc(C(F)(F)F)cc1 [CP 57, (E)-2-(((3-Mercapto-5-(4-(trifluoromethyl)phenyl)-4H-1,2,4-triazol-4-yl)imino)methyl)benzoic acid]
reduction of meropenem MIC [7, 13]: four-fold | reduction of meropenem MIC [8, 13]: four-fold | reduction of meropenem MIC [3, 11]: four-fold | synergistic activity with MEM [3, 11]: detectable synergistic effect | Ki [2, 10]: 5.59 µM and 5.6 µM | growth inhibition, compound tested alone [4]: no growth inhibition | % Inib vs VIM-2 [6]: > 100% | Ki ([6]; substrate MEM, Ki determined with Dixon plot, read-out: VIM-2 Ki (Dixon plots)): 4.14 µM and 4.1 µM

Structure (SMILES): FC(F)(F)c1ccc(-c2nnc(S)n2/N=C/c2nn[nH]n2)cc1 [CP 58, (E)-4-(((2H-Tetrazol-5-yl)methylene)amino)-5-(4-(trifluoromethyl)phenyl)-4H-1,2,4-triazole-3-thiol]
% Inib vs VIM-2 [6]: 53%

MIC [7, 14]: 128 µg/mL | MIC [8, 14]: 128 µg/mL | MIC [3, 14]: 16 µg/mL | MIC ([5]; Pseudomonas aeruginosa, MEM alone (Cpd: None)): 256 µg/mL
Structure (SMILES): C[C@@H](O)[C@H]1C(=O)N2C(C(=O)O)=C(S[C@@H]3CN[C@H](C(=O)N(C)C)C3)[C@H](C)[C@H]12 [MEM, meropenem, reference compound]

Structure (SMILES): O=C(O)c1c(F)ccc2c1OB(O)[C@@H]1C[C@H]21 [QPX7728]
Ki values [9]: low nanomolar range

Structure (SMILES): NCCN[C@H]1CC[C@H](CC(=O)N[C@H]2Cc3cccc(C(=O)O)c3OB2O)CC1 [taniborbactam]
Ki values [9]: low nanomolar range
